From patent publication US9802960B2 (MILLENNIUM PHARMACEUTICALS, INC., priority 2014, dated 2017)

Target: Human VPS34 (Homo sapiens (Human), UniProt Q8NEB9)
Assay: Human VPS34 enzyme assay (Adapta TR-FRET)
Type: biochemical
Conditions: for inhibition at 1.11 µM: compound concentration 1.11 μM, read-out: Percent Inhibition; for IC50: IC50 range class

Chain of Human VPS34 (Q8NEB9 whole entry): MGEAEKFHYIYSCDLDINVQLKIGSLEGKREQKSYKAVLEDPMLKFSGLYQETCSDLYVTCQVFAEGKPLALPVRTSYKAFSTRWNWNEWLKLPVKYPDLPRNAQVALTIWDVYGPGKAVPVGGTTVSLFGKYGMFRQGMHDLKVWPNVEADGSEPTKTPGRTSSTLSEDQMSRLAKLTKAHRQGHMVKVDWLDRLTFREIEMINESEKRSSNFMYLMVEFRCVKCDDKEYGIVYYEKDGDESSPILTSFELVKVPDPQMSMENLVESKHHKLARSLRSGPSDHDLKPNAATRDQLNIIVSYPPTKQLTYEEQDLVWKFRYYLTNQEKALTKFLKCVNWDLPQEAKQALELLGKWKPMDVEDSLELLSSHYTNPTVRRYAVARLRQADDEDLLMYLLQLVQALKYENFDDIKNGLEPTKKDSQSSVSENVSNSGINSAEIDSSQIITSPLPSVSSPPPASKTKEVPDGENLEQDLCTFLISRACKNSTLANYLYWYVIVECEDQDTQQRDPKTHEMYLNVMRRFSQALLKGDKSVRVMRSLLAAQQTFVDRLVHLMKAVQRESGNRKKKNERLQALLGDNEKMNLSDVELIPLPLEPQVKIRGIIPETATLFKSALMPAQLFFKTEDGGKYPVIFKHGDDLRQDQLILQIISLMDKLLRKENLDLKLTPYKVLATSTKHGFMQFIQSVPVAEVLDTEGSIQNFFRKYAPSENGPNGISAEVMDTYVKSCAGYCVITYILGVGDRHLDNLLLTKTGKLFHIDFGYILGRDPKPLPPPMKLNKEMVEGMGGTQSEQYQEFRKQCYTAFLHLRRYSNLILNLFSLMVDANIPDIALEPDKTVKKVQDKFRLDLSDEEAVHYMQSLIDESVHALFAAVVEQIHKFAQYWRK

inhibition at 1.11 µM | IC50 | SMILES
> 99% |  | CC(=O)Nc1cc(-c2cnc(C)c(N3CC(N(C)C)CS3(=O)=O)c2)ccn1 (single isomer, unassigned) [Compound I-496, N-(5-(4-(dimethylamino)-1,1-dioxidoisothiazolidin-2-yl)-6-methyl-[3,4′-bipyridin]-2′-yl)acetamide]
> 99% |  | CC(=O)Nc1cc(-c2cnc(C)c(N3CC(N(C)C)CS3(=O)=O)c2)ccn1 (single isomer, unassigned) [Compound I-497, (R or S)—N-(5-(4-(dimethylamino)-1,1-dioxidoisothiazolidin-2-yl)-6-methyl-[3,4′-bipyridin]-2′-yl)acetamide]
> 99% |  | CNc1ncc(-c2ccnc(NC(C)=O)c2)cc1C(=O)N(C)C [Compound I-22, 2′-acetamido-N,N-dimethyl-6-(methylamino)-3,4′-bipyridine-5-carboxamide]
> 99% |  | CC(=O)Nc1cc(-c2cnc3ccn(S(=O)(=O)c4ccccc4)c3c2)ccn1 [Compound I-23, N-{4-[1-(phenylsulfonyl)-1H-pyrrolo[3,2-b]pyridin-6-yl]pyridin-2-yl}acetamide]
> 99% |  | CC(=O)Nc1cc(-c2cnc(N)c(S(=O)(=O)N3CCOCC3)c2)ccn1 [Compound I-24, N-[6-amino-5-(morpholin-4-ylsulfonyl)-3,4′-bipyridin-2′-yl]acetamide]
> 99% |  | CC(=O)Nc1cc(-c2cnc(N(C)C)c(NS(=O)(=O)c3ccc(F)cc3F)c2)ccn1 [Compound I-25, N-[5-{[(2,4-diflurophenyl)sulfonyl]amino}-6-(dimethylamino)-3,4′-bipyridin-2′-yl]acetamide]
> 99% |  | CCN(c1cc(-c2ccnc(NC(C)=O)c2)cnc1C)S(=O)(=O)C1CC1 [Compound I-26, N-{5-[(cyclopropylsulfonyl)(ethyl)amino]-6-methyl-3,4′-bipyridin-2′-yl}acetamide]
> 99% |  | CCN(CC)C(=O)c1cc(-c2ccnc(NC(C)=O)c2)cnc1N [Compound I-27, 2′-acetamido-6-amino-N,N-diethyl-3,4′-bipyridine-5-carboxamide]
> 99% |  | CC(=O)Nc1cc(-c2cnc(C)c(NS(=O)(=O)c3cc(C)ccc3F)c2)ccn1 [Compound I-28, N-(5-{[(2-fluoro-5-methylphenyl)sulfonyl]amino}-6-methyl-3,4′-bipyridin-2′-yl)acetamide]

Further lines, the compound ahead of its results:

SMILES | inhibition at 1.11 µM | IC50
Cc1ncc(-c2ccnc(NC(=O)C3CC3(F)F)c2)cc1NS(=O)(=O)c1ccc(F)cc1F (racemic) [Compound I-16, (rac)-N-(5-{[(2,4-difluorophenyl)sulfonyl]amino}-6-methyl-3,4′-bipyridin-2′-yl)-2,2-difluorocyclopropanecarboxamide] | > 99% | 
CC(=O)Nc1cc(-c2cnc(C)c(NS(=O)(=O)c3ccc(C(F)(F)F)nc3)c2)ccn1 [Compound I-1, N-[6-methyl-5-({[6-(trifluoromethyl)pyridin-3-yl]sulfonyl}amino)-3,4′-bipyridin-2′-yl]acetamide] | > 99% | 
CC(=O)Nc1cc(-c2cnc3cnn(S(=O)(=O)C4CC4)c3c2)ccn1 [Compound I-2, N-{4-[1-(cyclopropylsulfonyl)-1H-pyrazolo[4,3-b]pyridin-6-yl]pyridin-2-yl}acetamide] | > 99% | 
CC(=O)Nc1cc(-c2cnc(N)c(S(=O)(=O)Cc3ccc4ccccc4c3)c2)ccn1 [Compound I-3] | 87% | 
Cc1cnc(NC(=O)C2CC2)cc1-c1cnc(C)c(NS(=O)(=O)c2ccc(F)cc2F)c1 [Compound I-4, N-(5-{[(2,4-difluorophenyl)sulfonyl]amino}-5′,6-dimethyl-3,4′-bipyridin-2′-yl)cyclopropanecarboxamide] | > 99% | 
CC(=O)Nc1cc(-c2cnc(N)c(S(=O)(=O)Cc3ccccc3)c2)ccn1 [Compound I-6, N-[6-amino-5-(benzylsulfonyl)-3,4′-bipyridin-2′-yl]acetamide] | > 99% | 
CC(=O)Nc1cc(-c2cnc(N)c(S(=O)(=O)NC(C)C)c2)ccn1 [Compound I-7, N-[6-amino-5-(isopropylsulfamoyl)-3,4′-bipyridin-2′-yl]acetamide] | > 99% | < 10 nM
CC(=O)Nc1cc(-c2cncc(C(=O)C3CC3)c2)ccn1 [Compound I-8, N-[5-(cyclopropylcarbonyl)-3,4′-bipyridin-2′-yl]acetamide] | > 99% | 
CC(=O)Nc1cc(-c2cncc(S(=O)(=O)N3CCC(F)(F)CC3)c2)ccn1 [Compound I-9, N-{5-[(4,4-difluoropiperidin-1-yl)sulfonyl]-3,4′-bipyridin-2′-yl}acetamide] | > 99% | 
CC(=O)Nc1cc(-c2cnc(N)c(C(=O)N3CCCCC3)c2)ccn1 [Compound I-10, N-[6-amino-5-(piperidin-1-ylcarbonyl)-3,4′-bipyridin-2′-yl]acetamide] | > 99% | 
CC(=O)Nc1cc(-c2cnc(N)c(S(=O)(=O)NC34CC(C3)C4)c2)ccn1 [Compound I-11, N-[6-amino-5-(bicyclo[1.1.1]pent-1-ylsulfamoyl)-3,4′-bipyridin-2′-yl]acetamide] | > 99% | 
CC(=O)Nc1cc(-c2cncc(NS(=O)(=O)c3ccc(F)cc3F)c2)ccn1 [Compound I-12, N-(5-{[(2,4-difluorophenyl)sulfonyl]amino}-3,4′-bipyridin-2′-yl)acetamide] | > 99% | 
CC(=O)Nc1cc(-c2cncc(NC(=O)c3ccccc3)c2)ccn1 [Compound I-13, N-(2′-acetamido-3,4′-bipyridin-5-yl)benzamide] | 81% | 
CC(=O)Nc1cc(-c2cnc(N)c(C(=O)NCC3CC3)c2)ccn1 [Compound I-14, 2′-acetamido-6-amino-N-(cyclopropylmethyl)-3,4′-bipyridine-5-carboxamide] | > 99% | 
CC(=O)Nc1cc(-c2cnc(N)c(C(=O)N3CCCC3)c2)ccn1 [Compound I-15, N-[6-amino-5-(pyrrolidin-1-ylcarbonyl)-3,4′-bipyridin-2′-yl]acetamide] | > 99% | 
CC(=O)Nc1cc(-c2cnc3cc[nH]c3c2)ccn1 [Compound I-17, N-[4-(1H-pyrrolo[3,2-b]pyridin-6-yl)pyridin-2-yl]acetamide] | > 99% | 
CC(=O)Nc1cc(-c2cnc(C)c(NS(=O)(=O)c3cn(C)nc3C(F)(F)F)c2)ccn1 [Compound I-18, N-[6-methyl-5-({[1-methyl-3-(trifluoromethyl)-1H-pyrazol-4-yl]sulfonyl}amino)-3,4′-bipyridin-2′-yl]acetamide] | > 99% | 
CC(=O)Nc1cc(-c2cnc(N)c(S(=O)(=O)NCc3cccnc3)c2)ccn1 [Compound I-19, N-{6-amino-5-[(pyridin-3-ylmethyl)sulfamoyl]-3,4′-bipyridin-2′-yl}acetamide] | > 99% | 50 to 100 nM
CC(=O)Nc1cc(-c2cncc(N(C)S(C)(=O)=O)c2)ccn1 [Compound I-20, N-{5-[methyl(methylsulfonyl)amino]-3,4′-bipyridin-2′-yl}acetamide] | > 99% | 
CC(=O)Nc1cc(-c2cnc3c(c2)S(=O)(=O)N(C)CN3)ccn1 [Compound I-21, N-[4-(2-methyl-1,1-dioxido-3,4-dihydro-2H-pyrido[2,3-e][1,2,4]thiadiazin-7-yl)pyridin-2-yl]acetamide] | > 99% | 
